Peptide text beside a SMILES is read from it.
Key:
P3028, dHSA, HSA = experiment: ELISA and competition ELISA with rabbit anti-3028 antiserum; format: binding, human; conditions: competition ELISA, serum L
Procedure: Duplicate wells in Hi-binding microtitre plates (Costar® 2592, Corning® Inc, NY, USA) were coated with 100 μl of P3028 (10 ug/ml), denatured HSA (denHSA, 4.5 ug/ml) or control HSA sample (4.5 ug/ml). All coating reagent were diluted in PBS and incubated at room temperature overnight. The wells where then washed with wash buffer consisting of 0.05% Tween-20 in PBS (Sigma®) followed by blocking for 1 hr at 25° C. with 200 μl 0.5% gelatin prepared from bovine skin (Sigma®) in PBS followed by washing in wash buffer. […] Biotinylated horse anti-rabbit/mouse IgG (Vectastain® ELITE, Vector® Laboratories Inc, CA, USA) diluted 1/5 in ELISA reagent diluent was then added and the plates incubated for 1 h at 25° C. followed by washing. Next, HRP-conjugated streptavidin (R&D Systems® Europe, Ltd, UK) was added. Finally, after washing in wash buffer, substrate solution consisting of H2O2 and tetramethylbenzidine (R&D Systems®) was added. The reaction was stopped with 1M H2504 and the optical density measured as absorbance (A) at dual wavelengths, 450 nm and 570 nm, with a Multiscan® EX microplate reader (Labsystems).
Two antisera, R and L, from two different rabbits were tested for their ability to bind human serum and denatured Human Serum Albumin (dHSA). […] No substantial binding was detected for wells with no coat 202. […]

PBMCs = experiment: IL-2 induced proliferation of PBMCs, 3H-thymidine incorporation (human ex vivo model); format: cell-based; conditions: for inhibition of IL-2 induced proliferation: PBMCs from healthy control samples, 7 days, 3H-thymidine; for neutralization of the inhibitory effect of P3028 on IL-2 induced proliferation: fragments alone or in combination
Procedure: 100 μl of RPMI1640 supplemented with 200 IU/ml penicillin, […] streptomycin, 4 mM L-glutamine (all from Sigma® Chemical Co. MO, US) and 20% heat-inactivated human serum (autologous or from cancer patients) were added to uncoated, HSA or HSA/IgG coated tissue culture microtiter plates. PBMC, isolated from healthy individuals or patients with metastatic renal cell carcinoma, were diluted in RPMI/2% HSA at a concentration of 5×10^5/ml and 100 μl were added to the microtiter wells. Interleukin-2 (IL-2, Proleukin®, Chiron®, NL), at a final concentration of 120 IU/well, was added to some wells. Cells were cultured for 7 days in a humidified, 5% CO2-atmosphere at 37° C. Proliferation was assayed by incorporation of 1.6 μCi/well of [^3H]-thymidine (Amersham® Int., UK) during the last 18 hrs. Mean values of dpm (disintegrations per minute) of triplicates were used for the calculations.
Cultures for IL-2 induced proliferation was set up with PBMC from healthy donors and autologous serum as described above with the exception that PBMC were first pre-incubated for 30 min at room temperature with the indicated albumin peptides at a concentration of 10 μg/ml.
Round-bottomed, 96-well tissue culture plates (Costar®, Corning® Inc. NY, US) were pre-coated with HSA only or HSA and pooled human IgG for intravenous injection (Gammagard®, Baxter AS, DK) as follows; HSA was diluted in RPMI1640 without supplements to a concentration of 10 mg/ml. A mixture of 1 mg/ml IgG in a solution of 9 mg/ml HSA in RPMI (HSA/IgG) was also prepared. 200 μl of HSA or HSA/IgG were then added to each well of the plate. The plates were incubated at 4° C. for 30 minutes after which the wells were washed twice with 200 μl of RPMI1640. The coated plates were used immediately. 100 μl of RPMI1640 supplemented with 200 IU/ml penicillin, […] streptomycin, 4 mM L-glutamine (all from Sigma® Chemical Co. MO, US) and 20% heat-inactivated human serum (autologous) were added to the HSA or HSA/IgG coated tissue culture microtiter wells. PBMC, isolated from healthy individuals, were diluted in RPMI/2% HSA and peptides were added directly to the cell suspension at a concentration of 10 μg/ml. One hundred μl of this cell suspension (5×10^4 lymphocytes) was then added per well providing a final concentration of 5 μg/ml peptide per well. IL-2 (Proleukin®, Chiron®, NL), at a final concentration of 120 IU/well, was added to the wells. Cells were cultured for 7 days in a humidified, 5% CO2-atmosphere at 37° C. Proliferation was assayed by incorporation of 1.6 μCi/well of [^3H]-thymidine (Amersham® Int., UK) during the last 18 hrs. Mean values of dpm (disintegrations per minute) of triplicates were used for the calculations.
The model included PBMCs isolated from venous blood samples from healthy blood donors (control samples) or cancer patients. One hundred pI of culture medium (RPMI 1640 Dutch's modification (Gibco®, InVitrogenAB®, Stockholm, Sweden) supplemented with 200 IV/ml penicillin, 200 ug/ml streptomycin, 4 mM L-glutamine (all from Sigma® Chemical Co. MO, US) and 20% heat-inactivated human serum) were added to roundbottomed, 96-well tissue culture plates (Costar®, Corning® Inc. NY, US). […] Control sample wells without IL-2 was set up in parallel. […]
The effect of different peptides on IL-2 induced proliferation was analyzed in the human ex vivo model, using PBMCs from healthy control samples. […] Proliferation was measured as incorporation of ^3H-thymidine during the final 18 hours. […]

K562 target cells = experiment: NK-cell cytotoxicity (NKTEST, flow cytometry); format: cell-based, human; conditions: 10 ug/ml peptide, effector:target 40:1, four donors
Procedure: The NK-cell cytotoxic activity of blood mononuclear cells from four healthy donors was tested. Mononuclear cells were separated by standard Ficoll-Paque® Plus (Pharmacia AB, Sweden) density gradient centrifugation from heparinized blood obtained from healthy donors. NK cell cytotoxic activity of the mononuclear cells was then tested using a commercial kit (NKTEST, Orpegen Pharma GmblI, Heidelberg, Germany) following the manufacturers protocol. Briefly, the kit contains cryopreserved, NK-sensitive target cells (K562) labeled with a lipophilic green fluorescent membrane dye, which enables discrimination of effector and target cells. After incubation with effector cells, killed target cells are identified by a DNA-stain, which penetrates and specifically stain the nuclei of dead target cells. This way the percentage of killed targets can be determined by flow cytometry. The mononuclear cells were preincubated for 30 min at 37° C. with the indicated peptides (peptides have been described previously) at 10 ug/ml. Target cells were then added, giving an effector:target ratio of 40:1, and the cell mixture incubated at 37° C. for 3-4 hours. Samples were analysed on a FACSCalibur (BD® Biosciences, San Jose, Calif.).

Solubility = format: physicochemical
P3028 = P3028 (Homo sapiens, UniProt P02768); experiment: Binding of His-tag labeled P3028 to looped (cyclic) peptides on chips, ELISA; conditions: positional scan of looped 6-meres
Procedure: In order to identify cyclic peptides that bind to P3028, all possible variants of di- and tripeptides were synthesized on chips and the binding of the His-tag labeled P 3028 was analyzed using the ELISA-technique. Based on the identified binding motifs, looped 6-meres were produced and tested. […] Positional scans were performed in each position of the lead cyclic peptide was replaced with each of the other 19 L-amino acids. Binding of each of the substituted peptides was tested, and peptide sequences with even better binding capacity than that of the lead peptide were identified.

Row | binding of cyclic peptides to P3028 (P3028) | Molecule | binding of rabbit anti-P3028 serum antibodies to P3028 fragments (P3028, dHSA, HSA) | inhibition of IL-2 induced proliferation (PBMCs) | neutralization of the inhibitory effect of P3028 on IL-2 induced proliferation (PBMCs) | other results
1 |  | VFDEFKPLVE (listed as Homo sapiens) [P3325] | bound preferentially | much weaker | do not inhibit | 
2 |  | CC(C)C[C@H](NC(=O)[C@H](C)NC(=O)[C@H](CC(N)=O)NC(=O)[C@H](CCC(N)=O)NC(=O)[C@H](Cc1ccccc1)NC(=O)[C@H](CCCCN)NC(=O)[C@H](Cc1ccc(O)cc1)NC(=O)[C@H](CCC(=O)O)NC(=O)CNC(=O)[C@H](CC(C)C)NC(=O)[C@H](CCC(N)=O)NC(=O)[C@H](CCC(=O)O)NC(=O)[C@H](Cc1ccccc1)NC(=O)[C@H](CC(C)C)NC(=O)[C@@H](N)CCC(=O)O)C(=O)N[C@@H](CC(C)C)C(=O)N[C@H](C(=O)N[C@@H](CCCNC(=N)N)C(=O)O)C(C)C [P3027] (H-ELFEQLGEYKFQNALLVR-OH; N-terminus and C-terminus assumed) |  |  |  | effect on NK-cell cytotoxicity (percent specific lysis of K562) (K562 target cells): Inhibition was not seen
3 |  | EPQNLIK (listed as Homo sapiens) [P3218] | not | much weaker | do not inhibit | 
4 |  | CC(C)C[C@H](NC(=O)[C@H](CO)NC(=O)[C@H](CC(C)C)NC(=O)[C@H](Cc1ccc(O)cc1)NC(=O)[C@@H](NC(=O)[C@H](Cc1ccccc1)NC(=O)[C@H](Cc1ccccc1)NC(=O)[C@@H](NC(=O)[C@H](CC(=O)O)NC(=O)[C@H](CC(C)C)NC(=O)[C@H](CCCCN)NC(=O)[C@@H](N)CCCCN)[C@@H](C)O)C(C)C)C(=O)N[C@@H](Cc1ccccc1)C(=O)N[C@H](C(=O)N[C@@H](CCC(=O)O)C(=O)N[C@@H](CCCNC(=N)N)C(=O)O)[C@@H](C)O [SEQ ID NO: 552] (H-KKLDTFFVYLSLFTER-OH; N-terminus and C-terminus assumed) |  |  |  | solubility (Solubility): soluble in aqueous solution
5 | highest affinity | CLRLNVFCG [SEQ ID NO: 265] |  |  |  | 
6 | highest affinity | CLRLIVMCG [SEQ ID NO: 266] |  |  |  | 
